Read-outs that look alike come from different tables or passages of the source. Bridge positions count the residues as written; N and C are the ends. Square brackets hold non-standard residues; d marks the D form. Peptide text beside a SMILES is read from it. Ahx = NCCCCCC(=O)O
Tests used:
[1] = test system: T47D (Human) breast cancer cells; assay: In vitro competitive cell binding assay, T47D
Protocol: (§1) In Vitro Competitive Cell Binding Assay. The IC50 values of both metallated and non-metallated STh conjugates were determined in human cancer cells by a competitive displacement cell binding assay using ^125I-STh (^125I-Tyr^5-Phe^19-STh or ^125I-Tyr^5-6-Ahx-Phe^19-STh). […] After the incubation, the reaction medium was aspirated and cells were washed three times with media. The radioactivity bound to the cells was counted in a Packard Riastar gamma counting system. The ^125I-STh bound to cells was plotted vs. increasing concentrations of STh conjugate to determine the respective IC50 values (Table 3). For statistical considerations, three separate in vitro cell binding experiments with each conjugate were performed in duplicate.

[2] = test system: MB-231 (Human) breast cancer cells; assay: In vitro competitive cell binding assay, MB-231
Protocol: as §1

[3] = test system: PC-3 (Human) prostate cancer cells; assay: In vitro competitive cell binding assay, PC-3; details: competitive binding vs. ^125I-Tyr^5-6-Ahx-Phe^19-STh or ^125I-Tyr^5-Phe^19-STh
Protocol: as §1

[4] = test system: CAPAN-1 (Human) pancreatic cancer cells; assay: In vitro competitive cell binding assay, CAPAN-1; details: competitive binding vs. ^125I-Tyr^5-6-Ahx-Phe^19-STh or ^125I-Tyr^5-Phe^19-STh
Protocol: as §1

[5] = test system: MCF-7 (Human) breast cancer cells; assay: In vitro competitive cell binding assay, MCF-7; details: competitive binding vs. ^125I-Tyr^5-6-Ahx-Phe^19-STh or ^125I-Tyr^5-Phe^19-STh
Protocol: as §1

[6] = test system: CFPAC-1 (Human) pancreatic cancer cells; assay: In vitro competitive cell binding assay, CFPAC-1; details: competitive binding vs. ^125I-Tyr^5-6-Ahx-Phe^19-STh or ^125I-Tyr^5-Phe^19-STh
Protocol: as §1

[7] = test system: A375 (Human) melanoma cells; assay: In vitro competitive cell binding assay, A375; details: competitive binding vs. ^125I-Tyr^5-6-Ahx-Phe^19-STh or ^125I-Tyr^5-Phe^19-STh
Protocol: as §1

[8] = test system: H69 (Human) lung cancer cells; assay: In vitro competitive cell binding assay, H69; details: competitive binding vs. ^125I-Tyr^5-6-Ahx-Phe^19-STh or ^125I-Tyr^5-Phe^19-STh
Protocol: as §1

[9] = test system: OVCAR-3 (Human) ovarian cancer cells; assay: In vitro competitive cell binding assay, OVCAR-3; details: competitive binding vs. ^125I-Tyr^5-6-Ahx-Phe^19-STh or ^125I-Tyr^5-Phe^19-STh
Protocol: as §1

[10] = test system: MB-468 (Human) breast cancer cells; assay: In vitro competitive cell binding assay, MB-468; details: competitive binding vs. ^125I-Tyr^5-6-Ahx-Phe^19-STh or ^125I-Tyr^5-Phe^19-STh
Protocol: as §1

`CC(C)C[C@@H]1NC(=O)[C@H](CCC(=O)O)NC(=O)[C@@H]2CSSC[C@@H]3NC(=O)[C@H](C)NC(=O)[C@@H]4CCCN4C(=O)[C@H](CC(N)=O)NC(=O)[C@H](CSSC[C@H](NC(=O)[C@H](Cc4ccc(O)cc4)NC(=O)[C@H](CC(N)=O)NC(=O)[C@H](CO)NC(=O)[C@H](CO)NC(=O)[C@H](CC(N)=O)NC(=O)CCCCCN)C(=O)N2)NC(=O)[C@H](CSSC[C@@H](C(=O)N[C@@H](Cc2ccccc2)C(=O)O)NC(=O)CNC(=O)[C@H]([C@@H](C)O)NC3=O)NC1=O` [6-Ahx-Phe^19-STh] (H-[Ahx]NSSNYCCELCCNPACTGCF-OH; disulfide 7-12, 8-16, 11-19 (inferred); N-terminus assumed) showed an IC50 ([1]; competitive binding vs. ^125I-Tyr^5-6-Ahx-Phe^19-STh or ^125I-Tyr^5-Phe^19-STh, read-out: In vitro IC50, Breast T47D (Human)) of 5.6 ± 0.9 nM, an IC50 ([2]; competitive binding vs. ^125I-Tyr^5-6-Ahx-Phe^19-STh or ^125I-Tyr^5-Phe^19-STh, read-out: In vitro IC50, Breast MB-231 (Human)) of 5.2 ± 1.5 nM and an IC50 [3] of 3.1 nM. It also gave an IC50 [4] of 4.5 nM, an IC50 [5] of 4.6 ± 2.8 nM and an IC50 [6] of 4.4 ± 1.5 nM. It also gave an IC50 [7] of 6.4 ± 2.9 nM.

`CC(C)C[C@@H]1NC(=O)[C@H](CCC(=O)O)NC(=O)[C@@H]2CSSC[C@@H]3NC(=O)[C@H](C)NC(=O)[C@@H]4CCCN4C(=O)[C@H](CC(N)=O)NC(=O)[C@H](CSSC[C@H](NC(=O)[C@H](Cc4ccc(O)cc4)NC(=O)[C@H](CC(N)=O)NC(=O)[C@H](CO)NC(=O)[C@H](CO)NC(=O)[C@@H](N)CC(N)=O)C(=O)N2)NC(=O)[C@H](CSSC[C@@H](C(=O)N[C@@H](Cc2ccccc2)C(=O)O)NC(=O)CNC(=O)[C@H]([C@@H](C)O)NC3=O)NC1=O` [Phe^19-STh] (H-NSSNYCCELCCNPACTGCF-OH; disulfide 6-11, 7-15, 10-18) was tested, and the IC50 ([1]; competitive binding vs ^125-Tyr-6-Ahx-Phe^19-STh, read-out: IC50, T-47D (FIG. 5)) was 3 ± 1.7 nM, the IC50 ([2]; competitive binding vs ^125-Tyr-6-Ahx-Phe^19-STh, read-out: IC50, MB-231 (FIG. 5)) was 5.2 ± 1.3 nM and the IC50 [8] was 4.5 ± 1.7 nM. It also gave an IC50 [9] of 3.2 nM and an IC50 [10] of 2.8 nM.

From patent US20030232013A1, “Therapeutic and diagnostic targeting of cancers cells with tumor homing peptides” (priority 2002, published 2003)
